Results: patent publication US20020099070A1, “Dihydronaphthyridine potassium channel openers” (priority 2000, published 2002)

Legend:
[1] = system: Landrace pig bladder strips; test: Functional potassium channel opening activity in isolated bladder strips (field-stimulated twitch); settings: for Index: ED50 for P1075 divided by ED50 for test agonist, averaged over tissues; for EC50: Sus scrofa, read-out: pD2 (converted); for EC50 / pD2: negative logarithm of ED50; for Efficacy (% P1075): maximal efficacy relative to P1075, field stimulation 0.05 Hz, 0.5 ms, 20 volts
Experimental: Compounds were evaluated for functional potassium channel opening activity using tissue strips obtained from Landrace pig bladders.
Landrace pig bladders were obtained from female Landrace pigs of 9-30 kg. Landrace pigs were euthanized with an intraperitoneal injection of pentobarbital solution, Somlethal® , J. A. Webster Inc., Sterling, Mass. The entire bladder was removed and immediately placed into Krebs Ringer bicarbonate solution (composition, mM: NaCl, 120; NaHCO3, 20; dextrose, 11; KCl, 4.7; CaCl2, 2.5; MgSO4, 1.5; KH2PO4, 1.2; K2EDTA, 0.01, equilibrated with 5% CO2/95% O2 pH 7.4 at 37° C.). Propranolol (0.004 mM) was included in all of the assays to block β-adrenoceptors. The trigonal and dome portions were discarded. Strips 3-5 millimeters (mm) wide and 20 mm long were prepared from the remaining tissue cut in a circular fashion. The mucosal layer was removed. One end was fixed to a stationary glass rod and the other to a Grass FT03 transducer at a basal preload of 1.0 g. Two parallel platinum electrodes were included in the stationary glass rod to provide field stimulation of 0.05 Hz, 0.5 milli-seconds at 20 volts. This low frequency stimulation produced a stable twitch response of 100-500 centigrams. Tissues were allowed to equilibrate for at least 60 minutes and primed with 80 mM KCl. A control concentration response curve (cumulative) was generated for each tissue using the potassium channel opener P1075 as the control agonist. […] After a 60 minute rinsing period, a concentration response curve (cumulative) was generated for the test agonist in the same fashion as that used for the control agonist P1075. The maximal efficacy of each compounds (expressed as % relative to P1075) is reported. The amount of agent necessary to cause 50% of the agent's maximal response (ED50) was calculated using “ALLFIT” (DeLean et al., Am. J. Physiol., 235, E97 (1980)), and agonist potencies were expressed as pD2 (the negative logarithm). Agonist potencies were also expressed as an index relative to P1075. The index was calculated by dividing the ED50 for P1075 by the ED50 for the test agonist in a give tissue. Each tissue was used for only one test agonist, and the indices obtained from each tissue were averaged to provide an average index of potency.

[2] = system: primary cultured guinea-pig urinary bladder (GPB) cells; test: Membrane hyperpolarization (MHP) assay, DiBAC(4)3 / FLIPR; assay type: cell-based; settings: for Maximal Response (% P1075) / Emax: maximal steady-state hyperpolarization, normalized to 10 μM P1075 = 100%; for EC50: membrane hyperpolarization in GPB cells; for Emax: read-out: Maximal Response (% P1075)
Experimental: Compounds were evaluated for potassium channel opening activity using primary cultured guinea-pig urinary bladder (GPB) cells.
For the preparation of urinary bladder smooth muscle cells, urinary bladders were removed from male guinea-pigs (Hartley, Charles River, Wilmington, Mass.) weighing 300-400 g and placed in ice-cold Ca^2+-free Krebs solution (Composition, mM: KCl, 2.7; KH2PO4, 1.5; NaCl, 75; Na2HPO4, 9.6; Na2HPO4.7H2O, 8; MgSO4, 2; glucose, 5; HEPES, 10; pH 7.4). Cells were isolated by enzymatic dissociation as previously described with minor modifications in Klockner, U. and Isenberg, G., Pflugers Arch. 1985, 405, 329-339, hereby incorporated by reference. The bladder was cut into small sections and incubated in 5 mL of the Kreb's solution containing 1 mg/mL collagenase (Sigma, St. Louis, Mo.) and 0.2 mg/mL pronase (Calbiochem, La Jolla, Calif.) with continuous stirring in a cell incubator for 30 minutes. The mixture was then centrifuged at 1300×g for 5 minutes, and the pellet resuspended in Dulbecco's PBS (GIBCO, Gaithersburg, Md.) and recentrifuged to remove residual enzyme. The cell pellet was resuspended in 5 mL growth media (composition: Dulbecco's modified Eagle's medium supplemented with 10% fetal bovine serum, 100 units/mL penicillin, 100 units/mL streptomycin and […] amphotericin B) and further dissociated by pipetting the suspension through a flame-polished Pasteur pipette and passing it through a polypropylene mesh membrane (Spectrum, Houston, Tex.). The cell density was adjusted to 100,000 cells/mL by resuspension in growth media. Cells were plated in clear-bottomed black 96-well plates (Packard) for membrane potential studies at a density of 20,000 cells/well and maintained in a cell incubator with 90% air: 10% CO2 until confluent. Cells were confirmed to be of smooth muscle type by cytoskeletal staining using a monoclonal mouse anti human-α-smooth muscle actin (Biomeda, Foster City, Calif.).
Functional activity at potassium channels was measured by evaluating changes in membrane potential using the bis-oxonol dye DiBAC(4)3 (Molecular Probes) in a 96-well cell-based kinetic assay system, Fluorescent Imaging Plate Reader (FLIPR) (K. S. Schroeder et al., J. Biomed. Screen., v. 1 pp. 75-81 (1996)), hereby incorporated by reference. DiBAC(4)3 is an anionic potentiometric probe which partitions between cells and extracellular solution in a membrane potential-dependent manner. With increasing membrane potential (for example, K^+ depolarization), the probe fuither partitions into the cell; this is measured as an increase in fluorescence due to dye interaction with intracellular lipids and proteins. Conversely, decreasing membrane potential (hyperpolarization by potassium channel openers) evokes a decrease in fluorescence.
Confluent guinea-pig urinary bladder cells cultured in black clear-bottomed 96-well plates were rinsed twice with […] assay buffer (composition, mM: HEPES, 20; NaCl, 120; KCl, 2; CaCl2, 2; MgCl2, 1; glucose, 5; pH 7.4 at 25° C.) containing 5 μM DiBAC(4)3 and incubated with […] of the buffer in a cell incubator for 30 minutes at 37° C. to ensure dye distribution across the membrane. After recording the baseline fluorescence for 5 minutes, the reference or test compounds, prepared at 10 times the concentration in the assay buffer, were added directly to the wells. Changes in fluorescence were monitored for an additional 25 minutes. Hyperpolarization responses were corrected for any background noise and were normalized to the response observed with 10 μM of the reference compound P1075, N″-cyano-N-(tert-pentyl)-N′-(3-pyridinyl)guanidine, which was assigned as 100%. P1075 is a potent opener of smooth muscle KATP channels (Quast et al., Mol. Pharmacol., v. 43 pp. 474-481 (1993)) and was prepared using the procedures described in (Manley, J. Med. Chem. (1992) 35, 2327-2340), hereby incorporated by reference. […]

SMILES: COc1nccc2c1C(c1ccc(F)c(Br)c1)C(C#N)=C(C)N2 (centres unmarked) [Example 38, 4-(3-bromo-4-fluorophenyl)-3-cyano-2-methyl-5-methoxy-1,4-dihydro[1,6]naphthyridine]
- Index [1]: 0.2488
- EC50 [1]: 1000 nM
- Efficacy (% P1075) [1]: 78 % P1075

SMILES: CC1=C(C#N)C(c2ccc(F)c(C(F)(F)F)c2)C2=C(CCOC2=O)N1 (centres unmarked) [Example 26, 4-[4-fluoro-3-(trifluoromethyl)phenyl]-3-cyano-2-methyl-1,4,7,8-tetrahydro-5H-pyrano[4,3-b]pyridin-5-one]
- Index [1]: 0.6715
- EC50 [1]: 275 nM
- Efficacy (% P1075) [1]: 98 % P1075

SMILES: CC1=C(C#N)C(c2ccc(F)c(Br)c2)c2c(ccnc2Cl)N1 (centres unmarked) [Example 34, 4-(3-bromo-4-fluorophenyl)-5-chloro-3-cyano-2-methyl-1,4-dihydro[1,6]naphthyridine]
- Maximal Response (% P1075) [2]: 90 % P1075
- EC50 [2]: 6 nM
- Index [1]: 0.2089
- Efficacy (% P1075) [1]: 85 % P1075
- pD2 [1]: 6.14

SMILES: CC1=C(C#N)C(c2ccc(F)c(Br)c2)C2=C(CCNC2=O)N1 (centres unmarked) [Example 2, 4-(3-bromo-4-fluorophenyl)-3-cyano-2-methyl-4,6,7,8-tetrahydro[1,6]naphthyridin-5(1H)-one]
- Emax ([2]; Cavia porcellus): 122%
- EC50 ([2]; Cavia porcellus): 100 nM
- Index [1]: 0.2653
- EC50 [1]: 692 nM
- Efficacy (% P1075) [1]: 60 % P1075

SMILES: CC1=C(C#N)C(c2ccc(F)c(Br)c2)c2c(cc[nH]c2=O)N1 (centres unmarked) [Example 5, 4-(3-bromo-4-fluorophenyl)-3-cyano-2-methyl-4,6-dihydro[1,6]naphthyridin-5(1H)-one]
- Emax ([2]; Cavia porcellus): 114%
- EC50 [2]: 17 nM
- Index [1]: 1.2740
- Efficacy (% P1075) [1]: 98 % P1075
- pD2 [1]: 6.85

SMILES: CC1=C(C#N)C(c2ccc(F)c(Br)c2)c2c(cc[nH]c2=O)N1 (centres unmarked) [Example 6, 4-(3-bromo-4-fluorophenyl)-3-cyano-2-methyl-4,6-dihydro[1,6]naphthyridin-5(1H)-one]
- Maximal Response (% P1075) [2]: 102 % P1075
- EC50 [2]: 1500 nM
- Index [1]: 0.0318
- Efficacy (% P1075) [1]: 67 % P1075
- pD2 [1]: 4.89

SMILES: CC1=C(C#N)C(c2ccc(F)c(Br)c2)c2c(cc[nH]c2=S)N1 (centres unmarked) [Example 35, 4-(3-bromo-4-fluorophenyl)-3-cyano-2-methyl-4,6-dihydro[1,6]naphthyridine-5(1H)-thione]
- Index [1]: 0.3068
- EC50 [1]: 794 nM
- Efficacy (% P1075) [1]: 77 % P1075

SMILES: CC1=C(C#N)C(c2ccc(F)c(Br)c2)c2c(ccn(C)c2=O)N1 (centres unmarked) [Example 7, 4-(3-bromo-4-fluorophenyl)-3-cyano-2,6-dimethyl-4,6-dihydro[1,6]naphthyridin-5(1H)-one]
- Index [1]: 2.826
- EC50 [1]: 10.2 nM
- Efficacy (% P1075) [1]: 100 % P1075

SMILES: CC1=C(C#N)C(c2ccc(F)c(Br)c2)c2c(ccnc2Cl)N1 (centres unmarked) [Example 33, 4-(3-bromo-4-fluorophenyl)-5-chloro-3-cyano-2-methyl-1,4-dihydro[1,6]naphthyridine]
- Maximal Response (% P1075) [2]: 65 % P1075
- EC50 [2]: 28 nM
- Index [1]: 0.0353
- Efficacy (% P1075) [1]: 61 % P1075
- pD2 [1]: 5.31

SMILES: CCC(C)(C)NC(=NC#N)Nc1cccnc1 [Example P1075, N″-cyano-N-(tert-pentyl)-N′-(3-pyridinyl)guanidine, reference compound]
- effect on stimulated twitch / contractions of the bladder ([1]; P1075: concentration range 10^−9 to 10^−5 M, cumulative): completely eliminated the stimulated twitch
